The values below are quoted from earlier work in US20220143126A1, “SYNERGISTIC COMBINATION OF PHYTOACTIVES” (priority 2019, published 2022).

The conditions of the data set: rats, concomitant administration of curcumin with piperine.

For `COc1cc(/C=C/C(=O)CC(=O)/C=C/c2ccc(O)c(OC)c2)ccc1O` [curcumin], the increase in bioavailability was 150%.
